Data taken from patent publication US20040038369A1, “Airway-specific trypsin-like enzymes and method of using the same” (priority 2000, published 2004).

Tested on: EGF on surface of H292 cell membrane
Test: Surface antigen analysis (FACS) of EGF on NCI-H292 cell membrane
Type: cell-based, human
Protocol: NCI-H292 cells (purchased from ATCC) were cultured on a 10 cm dish in 10% FCS-containing RPMI-1640 until to reach a confluent state, subjected to the replacement of the culture medium by RPMI-1640 containing 0.1% of BSA, and further cultured for 24 hours. The cultured cells were washed with PBS, treated and floated in PBS containing 5 mM of EDTA at 37° C. for five minutes, and then suspended in 0.1%BSA-containing RPMI-1640 in a density of 1.0×10^7 cells/mL.
The above-described cell suspension and 0.1% BSA-containing RPMI-1640 containing HAST in a double concentration (600 mU/mL) were mixed with each other in equivalent amounts, respectively, and reacted with each other at 37° C. for 30 minutes (final cell concentration: 5.0×10^6 cells/mL, final HAST concentration: 300 mU/mL). The reaction solution was mixed with ice-cooled 1% FCS-containing PBS in a volume of 5 times that of the reaction solution to stop the reaction, and the treated solution was then supplied for a surface antigen analysis.
The cells subjected to the prescribed treatments were suspended in 1% FCS-containing PBS in a density of 1.0×10^7 cells/mL. 100 μL of the prepared cell suspension was mixed with a primary antigen (EGF back ground dyeing: 1 μg of normal mouse IgG1 (produced by R & D Corp.), EGF dyeing: 1 μg of an anti-EGF mouse monoclonal antibody (produced by R & D Corp.), HB-EGF back ground dyeing: free from the primary antigen, HB-EGF dyeing: 2 μg of an anti-HB-EGF goat polyclonal antibody (produced by R & D Corp.)) and reacted on ice for 30 minutes. The reaction product was once washed with 5 mL of 1% FCS-containing PBS, mixed with 2 μg of a secondary antigen (EGF back ground dyeing and EGF dyeing: FITC conjugated F(ab′)2 fragment to mouse IgG (produced by Dako Corp.), HB-EGF back ground dyeing and HB-EGF dyeing: Swine Anti-Goat Ig's Fluorescein Conjugate (produced by KPL Corp.)), and then reacted on ice for 30 minutes. The reaction solution was once washed with 5 mL of 1% FCS-containing PBS, and then mixed with Cell Fix (produced by Becton Dickinson Corp.) to immobilize the cells. The expression of the surface antigen was assayed with FACS Calibur (produced by Becton Dickinson Corp.) and analyzed with Cell Quest (produced by Becton Dickinson Corp.). Average fluorescence intensities were shown in the next table as the indicators of expression intensities.
HAST (600 mU/mL) was reacted with leupeptin (10 μM) or BB1101 (5 μM) in 0.1% BSA-containing RPMI-1640 on ice for 30 minutes, and the reaction solution was mixed with the equivalent amount of a cell suspension preliminarily treated with leupeptin (10 μM) or BB1101 (5 μM) at 37° C. for 30 minutes, and further treated at 37° C. for 30 minutes (final HAST concentration: 300 mU/mL, final leupeptin concentration: 10 μM, final BB1101 concentration: 5 μM, final cell concentration: 5.0×10^6 cells/mL). The reaction solution was mixed with ice-cooled 1% FCS-containing PBS in an amount of five times that of the reaction solution to stop the reaction, and then supplied for the surface antigen analysis.
The cells subjected to the prescribed treatments were suspended in 1% FCS-containing PBS in a density of 1.0×10^7 cells/mL. […]

Substance: HAST: human airway-specific trypsin-like enzyme; propeptide moiety bound to trypsin-like protein moiety via a disulfide bond
- cleavage of proEGF on the surfaces of the cell membranes (HAST 300 mU/mL): cleaved
- EGF expression intensity on the surfaces of the cell membranes (average fluorescence intensity) (HAST 300 mU/mL, 37° C., 30 minutes, Back ground 4.62, PBS 7.26): 4.88
- EGF expression intensity on the surfaces of the cell membranes (average fluorescence intensity) (inhibitor experiment, HAST 300 mU/mL alone, Back ground 8.44, PBS 10.79): 8.33
